The nature of test [1]: DPPH free radical scavenging assay. As to conditions: mean ± SD, n = 4; ascorbic acid positive control. As to the method:
The DPPH free radical scavenging capacity of isolated compounds was determined according to a modified method. […] All isolated compounds and positive drug were dissolved and diluted in DMSO and DPPH (2,2-Diphenyl-1-picrylhydrazyl) was dissolved in anhydrous ethanol. Briefly, 190 μL of a working solution of DPPH (0.2 mM) was added to each well. Then, 10 μL of a sample solution of different concentrations (1.6, 1.2, 0.8, 0.4, 0.2, and 0.1 mM) was added, mixed well, and left to incubate in the dark at room temperature for 60 min. After that, the absorbance values of each well were measured at 517 nm using a microplate reader and the results were obtained from a minimum of three independent experiments. Ascorbic acid was used as the positive control. DMSO was used to replace the sample solution as a blank and absolute ethanol was used to replace the DPPH solution as a control.
The percentage free radical scavenging rate (%) of each test sample for DPPH was calculated as:Free radical scavenging rate (%) = [Ablank − (Asample − Acontral)] ÷ Ablank × 100%

Test [2] in a line: ABTS radical cation scavenging assay. As to conditions: mean ± SD, n = 4; ascorbic acid positive control. The procedure:
The ABTS free radical scavenging capacity of all isolated compounds was measured, the procedure followed a method with minor modifications. […] Equal volumes of ABTS (2,2′-azinobis(3-ethylbenzthiazoline-6-sulphonic acid)) solution (7 mM) and potassium persulfate solution (2.45 mM) were mixed evenly and left to react at room temperature for 12 h in the dark to obtain ABTS radical cation. The mixture was then diluted with anhydrous methanol to achieve an absorbance value of about 0.7 ± 0.02 units at 405 nm. Then, 190 μL of ABTS working solution was added to each well, followed by 10 μL samples of varying concentrations (0.8, 0.4, 0.2, 0.1, 0.05, 0.025, 0.0125, and 0.00625 mM) that were dissolved and diluted with DMSO. After mixing well, the samples were incubated at room temperature for 6 min away from light. The subsequent experimental method is basically consistent with the DPPH assay, the only difference is that ABTS assay detects the absorbance value at 405 nm.
The percentage radical cation scavenging rate (%) of each test sample for ABTS was calculated as follows:Radical cation scavenging rate (%) = [Ablank − (Asample − Acontral)] ÷ Ablank × 100%
The IC50 values were calculated by using GraphPad Prism 9.0 software.

Test [3] is described as follows: FRAP assay (total antioxidant capacity). The following applies: for FRAP Assay: Fe2+ concentration equivalent, sample solution 0.68 mM, mean ± SD, n = 4. The procedure:
The total antioxidant capacity of the samples was measured by the FRAP (ferric reducing ability of plasma) assay, with slight modifications. The acetate buffer (0.3 M, pH 3.6), TPTZ (2,4,6-tris(2-pyridyl)-S-triazine) solution (10 mM) in 40 mM HCl and ferric chloride aqueous solution (10 mM) were uniformly mixed at a volume ratio of 7:1:1 to obtain the FRAP working solution. FRAP working solution was preheated for 10 min in a constant temperature incubator at 37 °C before use. […] Then, 180 μL of FRAP working solution was added to each well, followed by 6 μL of sample solution (0.68 mM), and finally 18 μL of distilled water. Then, the mixture was stirred well and left to react at room temperature for 10 min. The absorbance values of each well were measured at 593 nm using a microplate reader and the results were obtained from at least three independent experiments. The sample solution was replaced with DMSO as a blank solution and ascorbic acid was used as a positive control. Different concentrations of FeSO4·7H2O (0.075–0.00078 μmol/mL) were used to establish the standard curve. The antioxidant capacity of the sample was expressed as the Fe^2+ concentration (μmol/mL) required to achieve the same absorbance change value. The final result was calculated by GraphPad Prism 9.0 software and presented as mean ± standard deviation (SD) of μmol Fe^2+ per milliliter.

The next test concerns HepG2 cells. Description: Hepatoprotective activity, APAP-induced HepG2 cell injury model (CCK-8). It counts as cell-based. The following applies: for viability at 20 µM: Homo sapiens, 20 μM compound, APAP 6 mM, 48 h, HepG2, APAP model 68.24 ± 1.34%, n = 3, mean ± SD; for hepatoprotective activity (in words): 20 μM, APAP-induced HepG2 cell injury. As to the method:
All these parameters were higher than in the preparation of cell viability positive control of 83.01 ± 0.82%.
HepG2 cells were maintained in DMEM medium supplemented with 10% fetal bovine serum, 100 U/mL penicillin G, and 100 μg/mL streptomycin. The cells were seeded in culture flasks and placed in a 5% CO2 incubator at 37 °C for routine cultivation. The hepatoprotective activities of the isolated samples were tested according to the modified method. To evaluate the effect of test samples on cell viability, a CCK-8 assay was performed. The experiment was conducted in 96-well plates, and 100 μL of HepG2 cells in logarithmic growth phase (8 × 10^5 cells/mL) were seeded in each well and cultured for 24 h. After that, samples (final concentration of 20 μM) and acetaminophen (APAP, final concentration of 6 mM) were added at one time to incubate for another 48 h. Then, 10 μL CCK-8 was added to each well and incubated for 1 h, followed by measuring the absorbance at a wavelength of 450 nm using a microplate reader.

The next test addresses α-glucosidase (Saccharomyces cerevisiae, UniProt P53341). Description: α-glucosidase inhibitory assay (p-NPG substrate). It counts as biochemical.

Chain of α-glucosidase (P53341 whole entry): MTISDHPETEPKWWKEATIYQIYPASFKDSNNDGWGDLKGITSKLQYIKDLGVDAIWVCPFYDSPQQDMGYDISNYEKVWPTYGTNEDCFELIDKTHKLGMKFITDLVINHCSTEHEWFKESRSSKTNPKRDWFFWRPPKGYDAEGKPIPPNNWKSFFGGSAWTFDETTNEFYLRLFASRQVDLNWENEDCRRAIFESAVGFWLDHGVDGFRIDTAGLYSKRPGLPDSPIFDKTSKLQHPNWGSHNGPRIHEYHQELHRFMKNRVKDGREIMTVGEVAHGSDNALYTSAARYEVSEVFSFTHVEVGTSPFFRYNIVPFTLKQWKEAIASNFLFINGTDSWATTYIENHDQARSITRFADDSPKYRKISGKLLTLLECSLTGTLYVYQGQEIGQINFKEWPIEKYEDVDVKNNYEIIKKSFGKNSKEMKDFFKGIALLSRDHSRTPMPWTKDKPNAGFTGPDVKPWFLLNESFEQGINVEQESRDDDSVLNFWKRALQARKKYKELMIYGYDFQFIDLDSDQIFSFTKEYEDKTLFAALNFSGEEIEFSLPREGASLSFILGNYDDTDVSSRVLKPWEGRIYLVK
Protocol for α-glucosidase: The α-glucosidase inhibitory activities of isolated compounds were evaluated by using a method previously described, but with minor modifications [34]. […] Briefly, 98 μL of PBS (0.1 M, pH 6.8) was added to each well. Then, 2 μL of different concentrations of sample solutions and 25 μL of α-glucosidase solution (0.25 U/mL) were added. After shaking and mixing slightly, the 96-well plate was placed in a 37 °C constant-temperature incubator and incubated for 20 min. Next, 25 μL of p-NPG (4 mM) was added to the plate to initiate the reaction, and it was further incubated in a 37 °C constant-temperature incubator for 15 min. Then, 50 μL of Na2CO3 (0.2 M) solution was quickly added to each well to terminate the reaction. The absorbance was measured at 405 nm using a microplate reader, and the results were obtained from a minimum of three independent experiments.

As usually defined, the IC50 is the concentration needed to halve the response being measured. Read a low IC50 as greater potency. By viability is commonly meant a per cent measure of how many cells are alive, often set against a control. Lower therefore signals more harm to the cells. On to `O=C(O[C@H]1C(=O)c2c(cc(O)c(O)c2O)O[C@@H]1c1cc(O)c(O)c(O)c1)c1cc(O)c(O)c(O)c1` [Compound 1, Meichasu A], for which the IC50 in test [1] was 32.52 ± 0.16 µM; in test [2] it was 4.43 ± 0.02 µM. The “FRAP Assay” value in test [3] was determined as 1.70 ± 0.00 µmol/mL. Further, in the test on HepG2 cells, the viability at 20 µM was found to be 84.93 ± 0.58%.
The like results for `C[C@@H]1O[C@@H](Oc2c(-c3ccc(O)c(O)c3)oc3c(O)c(O)c(O)c(O)c3c2=O)[C@H](O)[C@H](O)[C@H]1O` [Compound 2, Meichasu B] were, in that order, 44.4 ± 0.63 µM, 6.73 ± 0.03 µM, 1.96 ± 0.01 µmol/mL and 88.46 ± 0.63%.
As to `O=C1c2c(O)cc(O)cc2O[C@H](c2cc(O)c(O)c(O)c2)[C@H]1O` [Compound 3, (2R,3R)-Dihydromyricetin], the results for the IC50 in test [1] and in test [2] were 28.3 ± 0.38 µM and 5.91 ± 0.11 µM, respectively. The “FRAP Assay” value in test [3] came to 1.71 ± 0.01 µmol/mL. In the test on HepG2 cells, the “hepatoprotective activity (in words)” value is reported as “moderate hepatoprotective activities”.
Consider `O=c1c(O)c(-c2ccc(O)c(O)c2)oc2cc(O)cc(O)c12` [Compound 4, Quercetin], for which the values for the IC50 in test [1] and in test [2] were 25.5 ± 0.63 µM and 2.76 ± 0.04 µM, respectively. Besides, the “FRAP Assay” value in test [3] came out at 2.67 ± 0.01 µmol/mL. In the test with HepG2 cells, this molecule returned a viability at 20 µM of 84.9 ± 1.21%.
Consider `O=c1c(O)c(-c2cc(O)c(O)c(O)c2)oc2cc(O)cc(O)c12` [Compound 5, Myricetin], for which the IC50 turned out to be 29.8 ± 0.59 µM in test [1] and 3.39 ± 0.07 µM in test [2]. Also, in test [3], the “FRAP Assay” value came out at 1.72 ± 0.01 µmol/mL. For the same molecule, in the test with HepG2 cells, the “hepatoprotective activity (in words)” value is reported as “moderate hepatoprotective activities”.
As to `O=C1C[C@@H](c2ccc(O)cc2)Oc2cc(O)cc(O)c21` [Compound 6, Naringenin], the values for the IC50 in test [1] and in test [2] were > 80 µM and > 20 µM, respectively. Moreover, the “FRAP Assay” value in test [3] was found to be 0.07 ± 0.00 µmol/mL. The viability at 20 µM with HepG2 cells came to 83.7 ± 0.67%.
Take `O=c1c(O)c(-c2ccc(O)cc2)oc2cc(O)cc(O)c12` [Compound 7, Kaempferol]: the results for the 50% inhibitory concentration (IC50) in test [1] and in test [2] were > 80 µM and 19.9 ± 0.46 µM, respectively. Further, in test [3], the “FRAP Assay” value stood at 0.85 ± 0.01 µmol/mL. Further, the viability at 20 µM in the test on HepG2 cells came out at 87.08 ± 0.6%.
With `O=C(O)c1c(O)cccc1CCc1ccc(O)cc1` [Compound 8, lunularic acid], the IC50 in test [1] is > 80 µM; in test [2] it was > 20 µM. Also, the “FRAP Assay” value in test [3] came out at 0.13 ± 0.01 µmol/mL.
`O=C1c2c(O)cc(O)cc2O[C@@H](c2cc(O)c(O)c(O)c2)[C@@H]1O` [Compound 10, (2S,3S)-Dihydromyricetin]: the IC50 in test [1] is 43.5 ± 0.36 µM; in test [2], 5.01 ± 0.11 µM. In test [3], the “FRAP Assay” value amounted to 1.43 ± 0.01 µmol/mL.
As for `O=c1c(O)coc2cc(O)cc(O)c12` [Compound 11, 3,5,7-Trihydroxychromone], the values for the IC50 in test [1] and in test [2] were > 80 µM and > 20 µM, respectively. In addition, in test [3], the “FRAP Assay” value came to 0.15 ± 0.00 µmol/mL.
On to `O=C1c2c(O)cc(O)cc2OC(c2ccc(O)c(O)c2)C1O` (stereo not shown) [Compound 12, Taxifolin], for which the IC50 in test [1] was 39.21 ± 0.18 µM; in test [2] it was 7.36 ± 0.08 µM. Besides, in test [3], the “FRAP Assay” value is 1.32 ± 0.01 µmol/mL. This molecule showed a viability at 20 µM in the test on HepG2 cells of 85.4 ± 1.22%.
As to `C[C@@H]1O[C@@H](Oc2c(-c3ccc(O)cc3)oc3cc(O)cc(O)c3c2=O)[C@H](O)[C@H](O)[C@H]1O` [Compound 14, Afzelin], the IC50 is > 80 µM in test [1] and > 20 µM in test [2]. For the same molecule, the “FRAP Assay” value in test [3] turned out to be 0.07 ± 0.00 µmol/mL. Also, in the test on HepG2 cells, the “hepatoprotective activity (in words)” value was “essentially inactive”.
For `O=C(CCc1ccc(O)cc1)c1c(O)cc(O)cc1O[C@@H]1O[C@H](CO)[C@@H](O)[C@H](O)[C@H]1O` [Compound 15, Phloridzin], the “α-glucosidase inhibition (in words)” value at α-glucosidase was “minimally or not”. The IC50 in test [1] is > 80 µM; in test [2] it was > 20 µM. The “FRAP Assay” value in test [3] was 0.17 ± 0.01 µmol/mL.
In the case of `CC(C)CC(=O)c1c(O)cc(O)cc1O[C@@H]1O[C@H](CO)[C@@H](O)[C@H](O)[C@H]1O` [Compound 16, 2-O-[1-(3-Methylbutyryl)phloroglucin-ol]-β-D-glucopyranoside], the IC50 in test [1] is > 80 µM; in test [2], > 20 µM. In addition, in test [3], the “FRAP Assay” value is 0.24 ± 0.01 µmol/mL.
In the case of `O=C1CC(c2cc(O)c(O)c(O)c2)Oc2cc(O)cc(O)c21` (stereo not shown) [Compound 17, 5,7,3′,4′,5′-Pentahydroxy flavanone], the IC50 is 43.1 ± 0.94 µM in test [1] and 10.2 ± 0.13 µM in test [2]. Also, the “FRAP Assay” value in test [3] amounted to 1.18 ± 0.01 µmol/mL.
Consider `C[C@@H]1O[C@@H](Oc2c(-c3ccc(O)c(O)c3)oc3cc(O)cc(O)c3c2=O)[C@H](O)[C@H](O)[C@H]1O` [Compound 18, Quercitrin], for which, on α-glucosidase, the “α-glucosidase inhibition (in words)” value is “minimally or not”. In addition, the IC50 in test [1] came to 63.5 ± 0.97 µM; in test [2], 9.96 ± 0.16 µM. The “FRAP Assay” value in test [3] stood at 1.35 ± 0.02 µmol/mL. Also, in the test on HepG2 cells, the “hepatoprotective activity (in words)” value is “essentially inactive”.
In test [1], `O=C(O[C@H]1C(=O)c2c(O)cc(O)cc2O[C@@H]1c1cc(O)c(O)c(O)c1)c1cc(O)c(O)c(O)c1` [Compound 19, (2R,3R)-3,4-Dihydro-5,7-dihydroxy-4-oxo-2-(3,4,5-trihydroxyphenyl)-2H-1-benzopyran-3-yl 3,4,5-trihydroxybenzoate] had an IC50 of 17.3 ± 0.31 µM. The molecule also returned an IC50 in test [2] of 2.19 ± 0.01 µM. In test [3], the FRAP value was 2.79 µmol/mL and the “FRAP Assay” value stood at 2.79 ± 0.01 µmol/mL.
As for `O=C1O[C@H]([C@@H](O)CO)C(O)=C1O` [ascorbic acid, reference compound], the IC50 was 77.9 ± 0.87 µM in test [1] and 19 ± 0.31 µM in test [2]. In addition, the “FRAP Assay” value in test [3] is 0.57 ± 0.01 µmol/mL.
Molecule `COC(=O)c1cc(OC)c2c(c1-c1c(CO)cc(OC)c3c1OCO3)OCO2` [bicyclol, reference compound] returned a viability at 20 µM in the test with HepG2 cells of 83.01 ± 0.82%.
Myricitrin [Compound 13]: the “α-glucosidase inhibition (in words)” value on α-glucosidase is reported as “minimally or not”. Besides, the IC50 in test [1] stood at 35.03 ± 0.28 µM; in test [2] it was 6.88 ± 0.13 µM. In addition, the “FRAP Assay” value in test [3] came to 1.69 ± 0.02 µmol/mL.
For lunularin [Compound 9], the IC50 on α-glucosidase (mean ± SD, n = 4, acarbose positive control) was 9.42 ± 0.51 µM; in test [1] it was > 80 µM; in test [2], > 20 µM. Also, in test [3], the “FRAP Assay” value turned out to be 0.09 ± 0.00 µmol/mL.

For the origin of these results see paper PMC10745659, “Chemical Constituents and α-Glucosidase Inhibitory, Antioxidant and Hepatoprotective Activities of Ampelopsis grossedentata” (Molecules, 2023).
